Source: patent US9073855B2, “BCL-2 selective apoptosis-inducing agents for the treatment of cancer and immune diseases” (AbbVie Inc., priority 2008, dated 2015)

Assays:
GST-Bcl-XL = GST-Bcl-XL (Homo sapiens, UniProt Q07817); test: TR-FRET binding assay, GST-Bcl-XL with F-Bak peptide probe; details: TR-FRET Binding Affinity, GST-Bcl-XL, F-Bak peptide probe
Protocol: (§1) Tb-anti-GST antibody was purchased from Invitrogen (Catalog No. PV4216).
(§2) Representative compounds were serially diluted in dimethyl sulfoxide (DMSO) starting at 50 μM (2× starting concentration; 10% DMSO) and 10 μL were transferred into a 384-well plate.
(§3) The samples were then mixed on a shaker for 1 minute and incubated for an additional 3 hours at room temperature. For each assay, the probe/antibody and protein/probe/antibody were included on each assay plate as negative and positive controls, respectively. Fluorescence was measured on the ENVISION plate reader (Perkin Elmer) using a 340/35 nm excitation filter and 520/525 (F-Bak peptide) and 495/510 nm (Tb-labeled […] antibody) emission filters.
(§4) The inhibition constant (Ki) is the dissociation constant of an enzyme-inhibitor complex or a protein/small molecule complex, wherein the small molecule is inhibiting binding of one protein to another protein or peptide. […] Inhibition constants were determined using Wang's equation (Wang Z-X., An Exact Mathematical Expression For Describing Competitive Binding Of Two Different Ligands To A Protein Molecule. FEBS Lett. 1995, 360:111-4).

GST-Bcl-2 = GST-Bcl-2 (Homo sapiens, UniProt P10415); test: TR-FRET binding assay, GST-Bcl-2 with F-Bak peptide probe; details: TR-FRET Binding Affinity
Protocol: as §1, §2, §3, §4

Sequence of GST-Bcl-2 (P10415 whole entry): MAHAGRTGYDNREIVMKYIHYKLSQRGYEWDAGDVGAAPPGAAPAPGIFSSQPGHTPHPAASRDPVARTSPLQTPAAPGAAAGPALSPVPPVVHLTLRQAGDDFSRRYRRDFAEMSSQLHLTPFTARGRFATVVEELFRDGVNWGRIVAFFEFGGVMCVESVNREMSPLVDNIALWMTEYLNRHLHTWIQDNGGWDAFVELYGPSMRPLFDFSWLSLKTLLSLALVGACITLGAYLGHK
Sequence of GST-Bcl-XL (Q07817 whole entry): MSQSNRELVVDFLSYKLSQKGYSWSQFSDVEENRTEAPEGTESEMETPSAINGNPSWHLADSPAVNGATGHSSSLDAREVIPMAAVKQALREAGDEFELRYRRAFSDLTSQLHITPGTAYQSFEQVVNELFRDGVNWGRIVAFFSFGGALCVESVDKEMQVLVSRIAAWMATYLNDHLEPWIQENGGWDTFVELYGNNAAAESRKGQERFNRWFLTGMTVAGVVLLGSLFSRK

O=C(NS(=O)(=O)c1ccc(NCC2CCOCC2)c([N+](=O)[O-])c1)c1ccc(N2CCN(Cc3ccccc3-c3ccc(Cl)cc3)CC2)cc1Oc1ccccc1 [Example 1, 4-{4-[(4′-chloro-1,1′-biphenyl-2-yl)methyl]piperazin-1-yl}-N-({3-nitro-4-[(tetrahydro-2H-pyran-4-ylmethyl)amino]phenyl}sulfonyl)-2-phenoxybenzamide]
Ki (GST-Bcl-XL): 578 nM | Ki (GST-Bcl-2; GST-Bcl-2, F-Bak peptide probe): 6.77 nM

CC1(C)CCC(c2ccc(Cl)cc2)=C(CN2CCN(c3ccc(C(=O)NS(=O)(=O)c4ccc(NCCCN5CCOCC5)c([N+](=O)[O-])c4)c(Oc4ccccc4)c3)CC2)C1 [Example 19, 4-(4-{[2-(4-chlorophenyl)-5,5-dimethylcyclohex-1-en-1-yl]methyl}piperazin-1-yl)-N-({4-[(3-morpholin-4-ylpropyl)amino]-3-nitrophenyl}sulfonyl)-2-phenoxybenzamide]
Ki (GST-Bcl-XL): 20 nM | Ki (GST-Bcl-2; GST-Bcl-2, F-Bak peptide probe): 0.847 nM

CC1(C)CCC(CN2CCN(c3ccc(C(=O)NS(=O)(=O)c4ccc(NCCCN5CCOCC5)c([N+](=O)[O-])c4)c(Oc4ccc5[nH]ncc5c4)c3)CC2)=C(c2ccc(Cl)cc2)C1 [Example 20, 4-(4-{[2-(4-chlorophenyl)-4,4-dimethylcyclohex-1-en-1-yl]methyl}piperazin-1-yl)-2-(1H-indazol-5-yloxy)-N-({4-[(3-morpholin-4-ylpropyl)amino]-3-nitrophenyl}sulfonyl)benzamide]
Ki (GST-Bcl-XL): 77.6 nM | Ki (GST-Bcl-2; GST-Bcl-2, F-Bak peptide probe): 2.36 nM

O=C(NS(=O)(=O)c1ccc(N2C(=O)C3CCC3C2=O)cc1)c1ccc(N2CCN(Cc3ccccc3-c3ccc(Cl)cc3)CC2)cc1Oc1ccccc1 (stereo not shown) [Example 28, 4-{4-[(4′-chloro-1,1′-biphenyl-2-yl)methyl]piperazin-1-yl}-N-{[4-(2,4-dioxo-3-azabicyclo[3.2.0]hept-3-yl)phenyl]sulfonyl}-2-phenoxybenzamide]
Ki (GST-Bcl-XL): > 660 nM | Ki (GST-Bcl-2; GST-Bcl-2, F-Bak peptide probe): 33.7 nM

CC1CC(=O)NN=C1c1ccc(S(=O)(=O)NC(=O)c2ccc(N3CCN(Cc4ccccc4-c4ccc(Cl)cc4)CC3)cc2Oc2ccccc2)cc1 (stereo not shown) [Example 29, 4-{4-[(4′-chloro-1,1′-biphenyl-2-yl)methyl]piperazin-1-yl}-N-{[4-(4-methyl-6-oxo-1,4,5,6-tetrahydropyridazin-3-yl)phenyl]sulfonyl}-2-phenoxybenzamide]
Ki (GST-Bcl-XL): > 660 nM | Ki (GST-Bcl-2; GST-Bcl-2, F-Bak peptide probe): 11.9 nM

CC1(C)CN(c2ccc(S(=O)(=O)NC(=O)c3ccc(N4CCN(Cc5ccccc5-c5ccc(Cl)cc5)CC4)cc3Oc3ccccc3)cc2)C1=O [Example 30, 4-{4-[(4′-chloro-1,1′-biphenyl-2-yl)methyl]piperazin-1-yl}-N-{[4-(3,3-dimethyl-2-oxoazetidin-1-yl)phenyl]sulfonyl}-2-phenoxybenzamide]
Ki (GST-Bcl-XL): > 660 nM | Ki (GST-Bcl-2; GST-Bcl-2, F-Bak peptide probe): 103 nM

O=C(NS(=O)(=O)c1ccc(-n2ncc([N+](=O)[O-])n2)cc1)c1ccc(N2CCN(Cc3ccccc3-c3ccc(Cl)cc3)CC2)cc1Oc1ccccc1 [Example 31, 4-{4-[(4′-chloro-1,1′-biphenyl-2-yl)methyl]piperazin-1-yl}-N-{[4-(4-nitro-2H-1,2,3-triazol-2-yl)phenyl]sulfonyl}-2-phenoxybenzamide]
Ki (GST-Bcl-XL): > 660 nM | Ki (GST-Bcl-2; GST-Bcl-2, F-Bak peptide probe): 36.6 nM

O=C(NS(=O)(=O)c1ccc(NCCCN2CCOCC2)c([N+](=O)[O-])c1)c1ccc(N2CCN(Cc3ccccc3-c3ccc(Cl)cc3)CC2)cc1Oc1ccc2[nH]ccc2c1 [Example 59, 4-{4-[(4′-chloro-1,1′-biphenyl-2-yl)methyl]piperazin-1-yl}-2-(1H-indol-5-yloxy)-N-({4-[(3-morpholin-4-ylpropyl)amino]-3-nitrophenyl}sulfonyl)benzamide]
Ki (GST-Bcl-XL): 1260 nM

CC1(C)CCC(CN2CCN(c3ccc(C(=O)NS(=O)(=O)c4cnc(NCC5CCC(C)(O)CC5)c([N+](=O)[O-])c4)c(Oc4cccc5[nH]ncc45)c3)CC2)=C(c2ccc(Cl)cc2)C1 (stereo not drawn) [Example 555, 4-(4-{[2-(4-chlorophenyl)-4,4-dimethylcyclohex-1-en-1-yl]methyl}piperazin-1-yl)-N-[(6-{[(cis-4-hydroxy-4-methylcyclohexyl)methyl]amino}-5-nitropyridin-3-yl)sulfonyl]-2-(H-indazol-4-yloxy)benzamide]
Ki (GST-Bcl-2): < 0.01 nM
